What was measured:
Assay in all cases: relative viability (nuclei count vs DMSO), 5 days (fraction); higher = more cells survive
VX-11e + Luminespib = compound: CC1=CN=C(N=C1C2=CNC(=C2)C(=O)N[C@H](CO)C3=CC(=CC=C3)Cl)NC4=C(C=C(C=C4)F)Cl [VX-11e] + CCNC(=O)c1noc(-c2cc(C(C)C)c(O)cc2O)c1-c1ccc(CN2CCOCC2)cc1 [Luminespib] (partner 0.01 µM)
Procedure, shortened: (§1)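 Lung cancer cell lines, seeded in 1536-well plates, were treated the following day by pin tool with a single drug or with five library-drug doses (not always all listed) in √10 steps on top of a fixed anchor-drug dose. Cells were fixed and nuclei stained in one step after 5 days, and nuclei were counted. Relative viability is the nuclei count for treated wells divided by that for vehicle wells, reported as medians of duplicate plates.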

VX-11e + Foretinib = compound: CC1=CN=C(N=C1C2=CNC(=C2)C(=O)N[C@H](CO)C3=CC(=CC=C3)Cl)NC4=C(C=C(C=C4)F)Cl [VX-11e] + COc1cc2c(Oc3ccc(NC(=O)C4(C(=O)Nc5ccc(F)cc5)CC4)cc3F)ccnc2cc1OCCCN1CCOCC1 [Foretinib] (partner 0.25 µM)
Procedure, shortened: as §1

VX-11e + Linsitinib = compound: CC1=CN=C(N=C1C2=CNC(=C2)C(=O)N[C@H](CO)C3=CC(=CC=C3)Cl)NC4=C(C=C(C=C4)F)Cl [VX-11e] + C[C@]1(O)C[C@@H](c2nc(-c3ccc4ccc(-c5ccccc5)nc4c3)c3c(N)nccn32)C1 [Linsitinib] (partner 1 µM)
Procedure, shortened: as §1

VX-11e + Navitoclax = compound: CC1=CN=C(N=C1C2=CNC(=C2)C(=O)N[C@H](CO)C3=CC(=CC=C3)Cl)NC4=C(C=C(C=C4)F)Cl [VX-11e] + CC1(C)CCC(c2ccc(Cl)cc2)=C(CN2CCN(c3ccc(C(=O)NS(=O)(=O)c4ccc(N[C@H](CCN5CCOCC5)CSc5ccccc5)c(S(=O)(=O)C(F)(F)F)c4)cc3)CC2)C1 [Navitoclax] (partner 0.5 µM)
Procedure, shortened: as §1

| Cell Line | relative viability (VX-11e + Luminespib; first compound 0.04 µM) | relative viability (VX-11e + Luminespib; first compound 0.1265 µM) | relative viability (VX-11e + Luminespib; first compound 0.4 µM) | relative viability (VX-11e + Luminespib; first compound 1.265 µM) | relative viability (VX-11e + Luminespib; first compound 4 µM) | relative viability (VX-11e + Foretinib; first compound 0.04 µM) | relative viability (VX-11e + Foretinib; first compound 0.1265 µM) | relative viability (VX-11e + Foretinib; first compound 4 µM) | relative viability (VX-11e + Linsitinib; first compound 0.04 µM) | relative viability (VX-11e + Linsitinib; first compound 0.1265 µM) | relative viability (VX-11e + Linsitinib; first compound 0.4 µM) | relative viability (VX-11e + Linsitinib; first compound 1.265 µM) | relative viability (VX-11e + Linsitinib; first compound 4 µM) | relative viability (VX-11e + Navitoclax; first compound 0.04 µM) | relative viability (VX-11e + Navitoclax; first compound 0.1265 µM) | relative viability (VX-11e + Navitoclax; first compound 0.4 µM) | relative viability (VX-11e + Navitoclax; first compound 1.265 µM) | relative viability (VX-11e + Navitoclax; first compound 4 µM) | relative viability (VX-11e + Foretinib; first compound 0.4 µM) | relative viability (VX-11e + Foretinib; first compound 1.265 µM) |
| --- | --- | --- | --- | --- | --- | --- | --- | --- | --- | --- | --- | --- | --- | --- | --- | --- | --- | --- | --- | --- |
| 201T | 1.06 | 1.06 | 1.09 | 1.05 | 0.918 | 1.12 | 0.959 | 1.03 | 1.01 | 1.02 | 1 | 0.867 | 0.966 | 1.23 | 1.16 | 1.2 | 1.17 | 1.08 | – | – |
| A549 | – | – | – | – | – | 1.02 | 0.973 | 0.0913 | 0.548 | 0.485 | 0.448 | 0.31 | 0.169 | 1.22 | 1.11 | 0.984 | 0.257 | 0.111 | 0.922 | 0.321 |
| ABC-1 | – | – | 0.495 | 0.436 | 0.518 | 1.48 | 0.996 | 0.826 | 0.814 | 0.792 | 0.597 | 0.531 | 0.538 | – | – | – | – | – | 0.899 | 1.16 |
| ChaGo-K-1 | 0.633 | 0.646 | 0.561 | 0.688 | 0.507 | 0.878 | 0.855 | 0.928 | – | – | – | – | – | 0.616 | – | 1.07 | 0.781 | 0.787 | 0.941 | 0.923 |
| HCC-44 | 1.17 | 0.96 | 0.364 | 0.556 | 0.916 | – | – | – | 0.697 | 0.619 | 0.686 | 0.657 | 0.523 | 0.92 | 0.883 | 1.22 | 1 | 0.732 | – | – |
| HCC-78 | – | – | – | – | – | – | 0.54 | 0.496 | 0.584 | 0.5 | 0.541 | 0.403 | 0.382 | 0.878 | 0.69 | 0.769 | 0.455 | 0.762 | 0.542 | 0.514 |
| HCC-366 | – | – | – | – | – | 1.01 | 0.876 | 0.701 | 0.774 | 0.602 | – | 0.348 | 0.0744 | 1.22 | 1.02 | – | 0.993 | 0.708 | – | 0.851 |
| IA-LM | – | – | – | – | – | 1.09 | 1.17 | 0.0917 | 0.694 | 0.516 | 0.469 | 0.132 | 0.142 | 0.899 | 0.891 | 0.844 | 0.415 | 0.0436 | 1.22 | 0.486 |
| LCLC-103H | 0.98 | 0.698 | 1.03 | 0.83 | 0.785 | 0.867 | 0.694 | 0.67 | 1.24 | 0.985 | 0.954 | 0.857 | 0.836 | – | – | – | – | – | 0.858 | 0.656 |
| NCI-H358 | – | 0.312 | 0.208 | 0.464 | 0.117 | 0.354 | 0.541 | 0.147 | 0.738 | 0.52 | – | 0.558 | 0.277 | – | – | – | – | – | 0.347 | 0.434 |
| NCI-H522 | 1.23 | 1.28 | 1.05 | 0.82 | 0.832 | – | – | – | – | – | – | – | – | – | – | – | – | – | – | – |
| NCI-H650 | 0.749 | 0.8 | 0.606 | 0.772 | 0.677 | 1.09 | 1.04 | 1.1 | – | 0.79 | 0.957 | – | 0.88 | – | – | – | – | – | 1.1 | 0.993 |
| NCI-H661 | 0.981 | 0.913 | 0.937 | 0.907 | 0.603 | 1.03 | 1.04 | 0.66 | 0.598 | 0.617 | 0.568 | 0.501 | 0.394 | – | – | – | – | – | 1.05 | 1.07 |
| NCI-H1299 | – | – | – | – | – | 1.2 | 1.08 | 0.52 | 1.08 | 0.944 | 0.942 | 0.682 | 0.36 | 1.02 | 1.01 | 1.02 | 0.976 | 0.692 | 1.11 | 1.23 |
| NCI-H1563 | 0.522 | 0.555 | 0.488 | 0.508 | 0.465 | 1.02 | 0.832 | 0.763 | 1.21 | 1.2 | 1.22 | 1.11 | 1.06 | – | – | – | – | – | 0.862 | 0.922 |
| NCI-H1650 | 0.195 | 0.185 | – | 0.192 | 0.186 | 1.14 | 0.972 | 0.711 | – | – | – | – | – | 1.21 | 1.07 | 1.08 | 0.856 | 0.374 | – | 1.02 |
| NCI-H1703 | – | – | – | – | – | 0.383 | 0.33 | 0.28 | 0.294 | 0.655 | – | 0.748 | 0.502 | 1.12 | 1.21 | 1.24 | 1.29 | 0.744 | – | 0.317 |
| NCI-H1792 | 0.419 | 0.351 | 0.216 | 0.417 | 0.225 | – | – | – | 0.706 | 0.488 | 0.681 | 0.484 | 0.137 | 0.614 | 0.639 | 0.672 | 0.646 | 0.588 | – | – |
| NCI-H2170 | 0.878 | 0.639 | 0.566 | 0.802 | 0.436 | 0.995 | 1.13 | 0.812 | – | – | – | – | – | 0.576 | 0.528 | 0.496 | 0.583 | 0.404 | 0.906 | 0.953 |
| NCI-H2342 | 0.79 | 0.76 | 0.558 | 0.617 | 0.747 | 1.15 | 1.1 | 0.893 | – | – | – | – | – | – | – | – | – | – | 0.98 | 1.07 |
| SW 900 | 0.211 | 0.186 | 0.174 | 0.175 | 0.173 | 0.851 | 0.943 | 0.519 | – | – | – | – | – | – | – | – | – | – | 0.969 | 0.794 |

— the supplement of paper PMC10307832
